# Assay results: patent publication US6699860B2, “Di-substituted aminomethyl-chroman derivative beta-3 adrenoreceptor agonists” (Bayer Pharmaceuticals Corporation, priority 2000, dated 2004)
# Counter-ions that a name gives are not always drawn.
# Test system: not given
# Experiment: not given
# Details: not given
row,melting point [°C],Compound
1,250,"O=C(O)c1ccc(-c2ccc3c(c2)CC[C@H](CNC[C@H](O)COc2ccccc2)O3)cc1 (as salt: hydrochloride) [Example 142, 4-[(2R)-2-({[(2S)-2-Hydroxy-3-phenoxyropyl]amino}methyl)-3,4-dihydro-2H-chromen-6-yl]benzoic acid]"

# Target: T1, human beta-3-adrenergic receptor (Homo sapiens, UniProt P13945)
# T1 construct: Chinese hamster ovary (CHO) cells that stably express full-length human beta-3-adrenergic receptor; expressed in transfected cells
# T1 sequence (P13945 whole entry): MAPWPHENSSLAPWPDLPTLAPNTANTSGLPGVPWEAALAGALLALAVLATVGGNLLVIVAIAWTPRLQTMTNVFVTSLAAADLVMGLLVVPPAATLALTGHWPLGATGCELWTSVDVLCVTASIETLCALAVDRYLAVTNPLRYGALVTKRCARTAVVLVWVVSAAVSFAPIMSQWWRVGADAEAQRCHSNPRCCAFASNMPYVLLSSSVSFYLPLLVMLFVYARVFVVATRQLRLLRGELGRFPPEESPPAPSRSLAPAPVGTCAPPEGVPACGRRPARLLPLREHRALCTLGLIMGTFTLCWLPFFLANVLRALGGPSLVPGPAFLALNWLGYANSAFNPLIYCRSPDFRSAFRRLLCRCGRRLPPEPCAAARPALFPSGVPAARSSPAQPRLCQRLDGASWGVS
# Experiment: cAMP production (SPA) in CHO cells stably expressing human beta-3-adrenergic receptor, agonist activity
# Type: cell-based
# Details: cAMP production in CHO cells expressing human beta-3-adrenergic receptor; compounds binned (≦1 μM or >1 μM); read-out: Beta-3 Agonistic Activity, EC50 values
# Method: The cell line is grown in 90% F12 nutrient mixture (HAM), 10% fetal bovine serum, 100 units/ml penicillin G sodium, […] streptomycin sulfate, and 2 mM L-glutamine at 37° C. in 95% air and 5% CO2. The transfected cell line is maintained with G418 (800ug/ml).
# To test agonist activity, cells are exposed to test compound and then assayed for cAMP production. […] Test compounds are assayed from 10 μM to 3 nM with 3-fold serial dilutions. The control agonist, isoproterenol (10 mM stock in 1.1 mM ascorbate), is assayed by 3-fold dilution beginning at 1 μM. Following a 30-minute incubation with the test compounds, the buffer/compound mixture is removed. […] The cAMP values are then plotted to ascertain the EC50 of each compound tested.
row,EC50 [nM],Compound
1,≤ 1000,"O=C(O)CCc1ccc2c(c1)CC[C@H](CNC[C@H](O)COc1ccccc1Cl)O2 [Example 264, 3-[(2R)-2-({[(2S)-3-(2-chlorophenoxy)-2-hydroxypropyl]amino}methyl)-3,4-dihydro-2H-chromen-6-yl]propanoic acid]"
2,≤ 1000,"O=C(O)c1ccc(-c2ccc3c(c2)CC[C@H](CNC[C@H](O)COc2ccccc2)O3)cc1 [Example 142, 4-[(2R)-2-({[(2S)-2-Hydroxy-3-phenoxyropyl]amino}methyl)-3,4-dihydro-2H-chromen-6-yl]benzoic acid]"
3,≤ 1000,"O=C(O)c1ccc(-c2ccc3c(c2)CCC(CNC[C@H](O)COc2ccccc2)O3)cc1-c1ccccc1 (stereo in doubt) [Example 215, 5-[(2S)-2-({[(2S)-2-hydroxy-3-phenoxypropyl]amino}methyl)-3,4-dihydro-2H-chromen-6-yl]-1,1′-biphenyl-2-carboxylic acid]"
4,≤ 1000,"O=C(O)c1ccc(-c2ccc3c(c2)CCC(CNC[C@H](O)COc2ccccc2)O3)cc1O (stereo in doubt) [Example 213, 2-hydroxy-4-[(2S)-2-({[(2S)-2-hydroxy-3-phenoxypropyl]amino}methyl)-3,4-dihydro-2H-chromen-6-yl]benzoic acid]"
5,≤ 1000,COC(=O)c1nc(-c2ccc3c(c2)CC[C@H](CNC[C@H](O)COc2ccccc2)O3)sc1-c1ccccc1 [Example 135]
6,> 1000,COC(=O)c1nc(-c2ccc3c(c2)CC[C@H](CNC[C@H](O)COc2ccccc2)O3)sc1C(C)C [Example 138]
7,≤ 1000,O=C(O)c1ccc(-c2ccc3c(c2)CC[C@H](CNC[C@H](O)COc2ccccc2O)O3)cc1 [Example 164]
8,> 1000,O=C(O)c1ccc(-c2ccc3c(c2)CC[C@H](CNC[C@H](O)CSc2cccc(C(F)(F)F)c2)O3)cc1 [Example 180]
9,≤ 1000,O=C(O)c1ccc(-c2ccc3c(c2)CC[C@H](CNCC(O)COc2ccc(F)cc2)O3)cc1 (some centres unmarked) [Example 232]
10,≤ 1000,CCCCOc1cc(-c2ccc3c(c2)CC[C@H](CNC[C@H](O)COc2ccccc2)O3)ccc1C(=O)O [Example 212]
11,> 1000,O=C(O)c1ccc(-c2ccc3c(c2)CC[C@H](CNC[C@H](O)CSc2cccc(F)c2)O3)cc1 [Example 175]
12,≤ 1000,O=C(O)c1ccc2cc(-c3ccc4c(c3)CC[C@H](CNC[C@H](O)COc3ccccc3)O4)ccc2c1 [Example 182]
13,> 1000,CCOC(=O)c1nc(-c2ccc3c(c2)CC[C@H](CNC[C@H](O)COc2ccccc2)O3)oc1-c1ccccc1 [Example 134]
14,≤ 1000,O=C(O)c1ccc(-c2ccc3c(c2)CC[C@H](CNC[C@H](O)COc2ccccc2)O3)cc1N1CCCCC1 [Example 202]
15,≤ 1000,COCCOc1cc(-c2ccc3c(c2)CC[C@H](CNC[C@H](O)COc2ccccc2)O3)ccc1C(=O)O [Example 210]
16,≤ 1000,O=C(O)c1ccc(-c2ccc3c(c2)CC[C@H](CNCC(O)COc2ccccc2Cl)O3)cc1 (some centres unmarked) [Example 234]
17,> 1000,O=C(O)c1ccc(-c2ccc3c(c2)CC[C@H](CNC[C@H](O)CSc2ccc(F)cc2)O3)cc1 [Example 176]
18,≤ 1000,O=C(O)c1nc(-c2ccc3c(c2)CC[C@H](CNC[C@H](O)COc2ccccc2)O3)sc1-c1ccccc1 [Example 188]
19,≤ 1000,CC(C)Oc1cc(-c2ccc3c(c2)CC[C@H](CNC[C@H](O)COc2ccccc2)O3)ccc1C(=O)O [Example 211]
